Among the test systems are HCT-116 colon; IGROV1 ovarian; HOP-62 NSCLC; A498 renal; OVCAR-5 ovarian; 786-0 renal; SK-MEL-28 melanoma; NCI-H460 lung; A549 NSCLC; UACC-257 melanoma; SK-OV-3 ovarian; MALME-3M melanoma.
Assay in all cases: inhibition of tumour cell growth, NCI panel, 48 h

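Assay format: 96-well plates, 48-hour exposure. The concentration for full growth arrest is given as TGI.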 Some results are limits rather than exact numbers.

In the case of `CCOC(=O)NNC1(SC)NC(=O)c2c(cc(Cl)oc2=O)O1` (configuration not stated), the TGI was determined as 3.08 µM with HCT-116 colon; 14.5 µM in the assay on IGROV1 ovarian; 25.6 µM in the assay with HOP-62 NSCLC; 29.2 µM in the assay with A498 renal; 25.2 µM in the assay on OVCAR-5 ovarian; 4.84 µM in the assay with 786-0 renal. The TGI worked out at 10.5 µM with SK-MEL-28 melanoma; 23.7 µM in the assay on NCI-H460 lung; 21.1 µM in the assay on A549 NSCLC; 30.4 µM in the assay on UACC-257 melanoma; 26.8 µM with SK-OV-3 ovarian.
As to `C=CCC1(O)c2cccc(O)c2C(=O)c2cccc(O)c21` (configuration not stated), the TGI with HCT-116 colon is 31.1 µM; with IGROV1 ovarian, more than 100 µM; in the assay with HOP-62 NSCLC, 49.7 µM; with A498 renal, 37 µM; in the assay with OVCAR-5 ovarian it was more than 100 µM; in the assay with 786-0 renal, 46.1 µM. The TGI in the assay on SK-MEL-28 melanoma was found to be 84.7 µM; with NCI-H460 lung it was 48 µM; in the assay on A549 NSCLC it was 88.1 µM; in the assay on UACC-257 melanoma, 38.7 µM.
For `C#CCSc1cnc2ccccc2c1Sc1c[nH]c2ccccc2c1=O`, the TGI in the assay with HCT-116 colon was 32.5 µM; in the assay on IGROV1 ovarian, 20 µM; in the assay with HOP-62 NSCLC, more than 100 µM; in the assay on MALME-3M melanoma it was more than 100 µM; in the assay on OVCAR-5 ovarian it was more than 100 µM; in the assay with 786-0 renal, 44.9 µM. For the same compound, the TGI with SK-MEL-28 melanoma is more than 100 µM; with NCI-H460 lung, 59.8 µM; with A549 NSCLC, more than 100 µM; in the assay on UACC-257 melanoma, 64.4 µM; in the assay with SK-OV-3 ovarian, more than 100 µM.
On to `CCOC(=O)c1ccc(Nc2nc3ccc(C(F)(F)F)cc3nc2-c2ccccc2)cc1`, for which the TGI in the assay on HCT-116 colon, in the assay on IGROV1 ovarian, with HOP-62 NSCLC, with MALME-3M melanoma, in the assay on OVCAR-5 ovarian and in the assay with 786-0 renal was more than 100 µM throughout. The TGI with SK-MEL-28 melanoma, with NCI-H460 lung, in the assay with A549 NSCLC and in the assay on UACC-257 melanoma was more than 100 µM each time.
As to `CCOC(=O)c1c(NC(=O)c2ccccc2)sc2c1CCC2`, the TGI in the assay with HCT-116 colon, with IGROV1 ovarian, in the assay on HOP-62 NSCLC, in the assay with A498 renal, with OVCAR-5 ovarian and with 786-0 renal was more than 100 µM in each case. Besides, the TGI with NCI-H460 lung, with A549 NSCLC and in the assay on UACC-257 melanoma was more than 100 µM each time.
As for `OCCCN(CCc1ccc(Cl)c(Cl)c1)CCN1CCCC1`, the TGI was more than 100 µM with HCT-116 colon; more than 100 µM in the assay on IGROV1 ovarian; more than 100 µM in the assay with HOP-62 NSCLC; 41.5 µM with MALME-3M melanoma; 44.6 µM with A498 renal; more than 100 µM in the assay with OVCAR-5 ovarian. Further, the TGI is 60.4 µM in the assay on 786-0 renal; more than 100 µM with NCI-H460 lung; more than 100 µM in the assay with A549 NSCLC; 36 µM in the assay with UACC-257 melanoma; more than 100 µM with SK-OV-3 ovarian.
For the compound `CCOC(=O)c1cc2cc(CSc3ccccc3)ccc2oc1=O`, the TGI in the assay with HCT-116 colon, in the assay with IGROV1 ovarian, in the assay with HOP-62 NSCLC, in the assay with MALME-3M melanoma, in the assay on OVCAR-5 ovarian and in the assay with 786-0 renal was more than 100 µM throughout. Further, the TGI in the assay on SK-MEL-28 melanoma, in the assay on NCI-H460 lung, with A549 NSCLC, with UACC-257 melanoma and in the assay with SK-OV-3 ovarian was more than 100 µM in each case.
Turning to `CSc1nc(-c2cc3c(c(SC)n2)CCC3)cc2c1CCC2`, the TGI with HCT-116 colon, in the assay on HOP-62 NSCLC, in the assay on A498 renal, with OVCAR-5 ovarian, in the assay with 786-0 renal and with SK-MEL-28 melanoma was more than 100 µM in each case. Moreover, the TGI with NCI-H460 lung, with A549 NSCLC, in the assay on UACC-257 melanoma and in the assay on SK-OV-3 ovarian was more than 100 µM throughout.
Turning to `C=C1CC(CNc2cc(Cl)nc(N)n2)C1`, the TGI was more than 100 µM in the assay with IGROV1 ovarian; more than 100 µM in the assay on HOP-62 NSCLC; more than 100 µM in the assay with MALME-3M melanoma; 76.3 µM in the assay on A498 renal; more than 100 µM in the assay on OVCAR-5 ovarian; more than 100 µM in the assay on 786-0 renal. The TGI with SK-MEL-28 melanoma, with NCI-H460 lung, in the assay on A549 NSCLC, in the assay on UACC-257 melanoma and in the assay on SK-OV-3 ovarian was more than 100 µM in each case.
Take `COc1ccccc1/C=C1/Sc2scc(CC(=O)Nc3ccccc3)[n+]2C1=O`: the TGI in the assay on HCT-116 colon, in the assay on IGROV1 ovarian, in the assay with HOP-62 NSCLC, in the assay on OVCAR-5 ovarian, with 786-0 renal and in the assay with SK-MEL-28 melanoma was more than 100 µM throughout. In addition, the TGI with NCI-H460 lung was more than 100 µM; with A549 NSCLC it was more than 100 µM; with UACC-257 melanoma, 80.4 µM; in the assay with SK-OV-3 ovarian, 71.7 µM.
On to `N#Cc1nc(Cc2ccccc2)oc1N`, for which the TGI in the assay on HCT-116 colon, in the assay with IGROV1 ovarian, in the assay with HOP-62 NSCLC, in the assay with MALME-3M melanoma, with OVCAR-5 ovarian and with 786-0 renal was more than 100 µM in each case. Moreover, the TGI in the assay on SK-MEL-28 melanoma, with NCI-H460 lung, with A549 NSCLC, in the assay with UACC-257 melanoma and in the assay with SK-OV-3 ovarian was more than 100 µM each time.
In the case of `COc1ccc(/C=N/n2c(Cc3ccc(Cl)cc3)n[nH]c2=O)cc1`, the TGI was more than 100 µM with HCT-116 colon; 48 µM with IGROV1 ovarian; 33.9 µM in the assay on HOP-62 NSCLC; more than 100 µM in the assay with A498 renal; more than 100 µM in the assay on OVCAR-5 ovarian; 54.6 µM in the assay with 786-0 renal. Further, the TGI in the assay on SK-MEL-28 melanoma, in the assay on NCI-H460 lung, in the assay with A549 NSCLC, in the assay on UACC-257 melanoma and with SK-OV-3 ovarian was more than 100 µM throughout.
`CCOC(=O)CC[C@@H](NC(=O)c1ccc(NCc2ccc3nc(OC)c(OC)nc3c2)cc1)C(=O)OCC`: the TGI was more than 100 µM in the assay on HCT-116 colon; 56.7 µM with IGROV1 ovarian; more than 100 µM in the assay on HOP-62 NSCLC; 39 µM in the assay with MALME-3M melanoma; more than 100 µM in the assay with OVCAR-5 ovarian; more than 100 µM in the assay on 786-0 renal. For the same compound, the TGI in the assay on SK-MEL-28 melanoma is 22.8 µM; in the assay on NCI-H460 lung it was 44.3 µM; in the assay with A549 NSCLC, more than 100 µM; with UACC-257 melanoma, 31.4 µM; with SK-OV-3 ovarian, more than 100 µM.

The values are drawn from PubChem BioAssay (NCI).
